Measurements reported in patent US7358258B2, “Prodrugs of an ERK protein kinase inhibitor” (Vertex Pharmaceuticals Incorporated, priority 2004, dated 2008).
Converted amounts (≈) assume the structure as drawn. Structures can show the parent of a compound that is named as a salt. Each block holds one compound with its values, some of them ahead of it.

Experiment: Water solubility at the designated pH
Assay type: physicochemical
Excerpt: As described herein, the present compounds are useful as prodrugs and, accordingly, impart improved physical and/or physiological characteristics over the parent compound. Such characteristics include half-life and water solubility. In certain embodiments, a compound of the present invention provides improvement with regard to one or more physical or physiological characteristics. In other embodiments, a compound of the present invention imparts improvement with regard to one or more physical and physiological characteristics. A summary of the results of comparison between certain compounds of the present invention and the parent compound is set forth in Table 3 below wherein all pharmacokinetic data reported was obtained in rat.
As used herein, the phrase “Relative AUC” refers to the ration of the area under the curve for a compound of the present invention and the area under the curve for the parent compound. Unless otherwise indicated, the data was obtained for the designated compound as the free base. The term “T½ (hr)” refers to the half life of the compound in hours. As used in Table 3, the term “Solubility” relates to the water solubility of the designated compound in mg per mL at the designated pH.

- solubility (water solubility at pH 2.5): 12400 µg/mL
SMILES: CC[C@H](COC(=O)COCCOC)Nc1ncc(C)c(-c2c[nH]c(C(=O)N[C@H](COC(=O)COCCOC)c3cccc(Cl)c3)c2)n1 [I-21 Ms salt]

- solubility (water solubility at pH 7.15): 3800 µg/mL
SMILES: CC[C@H](COP(=O)(O)O)Nc1ncc(C)c(-c2c[nH]c(C(=O)N[C@H](COP(=O)(O)O)c3cccc(Cl)c3)c2)n1 [I-23 (Na salt)]

- solubility (water solubility at pH 3.8): 7710 µg/mL
SMILES: CC[C@H](COC(=O)[C@@H](NC)C(C)C)Nc1ncc(C)c(-c2c[nH]c(C(=O)N[C@H](COC(=O)[C@@H](NC)C(C)C)c3cccc(Cl)c3)c2)n1 [I-20 (HCl salt), 3-Methyl-2-methylamino-butyric acid 2-(4-{5-[1-(3-chloro-phenyl)-2-(3-methyl-2-methylamino-butyryloxy)-ethylcarbamoyl]-1H-pyrrol-3-yl}-5-methyl-pyrimidin-2-ylamino)-butyl ester, tris HCl salt]

- solubility (water solubility at pH 6.87): 12600 µg/mL (≈ 19.6 mM)
SMILES: CC[C@H](COC(=O)CCC(=O)O)Nc1ncc(C)c(-c2c[nH]c(C(=O)N[C@H](COC(=O)CCC(=O)O)c3cccc(Cl)c3)c2)n1 [Compound I-18, Succinic acid, mono-[2-(4-{5-[2-(3-carboxy-propionyloxy)-1-(3-chloro-(S)-phenyl)-ethylcarbamyl]-1H-pyrrol-3-yl}-5-methyl-pyrimidin-2-ylamino)-(S)-butyl]ester]

- solubility (water solubility at pH 1): 4700 µg/mL (≈ 10.6 mM)
- solubility (water solubility at pH 7): 15 µg/mL (≈ 0.0338 mM)
SMILES: CCC(CO)Nc1ncc(C)c(-c2c[nH]c(C(=O)NC(CO)c3cccc(Cl)c3)c2)n1 (centres unmarked) [Parent, 4-[2-(1-hydroxymethyl-propylamino)-5-methyl-pyrimidin-4-yl]-1H-pyrrole-2-carboxylic acid [1-(3-chloro-phenyl)-2-hydroxy-ethyl]-amide, reference compound]

- solubility (water solubility at pH 2.2): 19000 µg/mL
SMILES: CC[C@H](COC(C)=O)Nc1ncc(C)c(-c2c[nH]c(C(=O)N[C@H](COC(C)=O)c3cccc(Cl)c3)c2)n1 [I-1 (HCl salt)]

- solubility (water solubility at pH 3.3): 11500 µg/mL (≈ 17.9 mM)
SMILES: CC[C@H](COC(=O)[C@@H](N)C(C)C)Nc1ncc(C)c(-c2c[nH]c(C(=O)N[C@H](COC(=O)[C@@H](N)C(C)C)c3cccc(Cl)c3)c2)n1 [Compound I-10, 2-(S)-Amino-3-methyl-butyric acid 2-(4-{5-[2-(2-(S)-amino-3-methyl-butyryloxy)-1-(3-chloro-(S)-phenyl)-ethylcarbamoyl]-1H-pyrrol-3-yl}-5-methyl-pyrimidin-2-ylamino)-(S)-butyl ester]
